Data from patent US8247573B2, “Substituted N-(2-mercaptopyridin-3-yl)amides as KCNQ2/3 modulators” (Gruenenthal GmbH, priority 2009, dated 2012).

Molecular target: T1, KCNQ2/3 channels (Homo sapiens, UniProt O43525+O43526)
T1 construct: expressed in transfected cells; host or cells: CHO-K1
Experiment: Fluorescence assay using a voltage-sensitive dye (fluorimetry)
Format: cell-based
Conditions: CHO-K1 cells expressing KCNQ2/3; for Emax: relative to retigabine = 100%, negative values = antagonistic, read-out: Fluorimetry % efficacy (I/EC50, retigabine = 100%); for EC50: agonistic activity
Procedure: Pharmacological Experiments Fluorescence Assay Using a Voltage-Sensitive Dye
Human CHO-K1 cells expressing KCNQ2/3 channels are cultivated adherently at 37° C., 5% CO2 and 95% humidity in cell culture bottles (e.g. 80 cm^2 TC flasks, Nunc) with DMEM-high glucose (Sigma Aldrich, D7777) including 10% FCS (PAN Biotech, e.g. 3302-P270521) or alternatively MEM Alpha Medium (1×, liquid, Invitrogen, #22571), 10% foetal calf serum (FCS) (Invitrogen, #10270-106, heat-inactivated) and the necessary selection antibiotics.
Before being seeded out for the measurements, the cells are washed with a 1×DPBS buffer without Ca^2+/Mg^2+ (e.g. Invitrogen, #14190-094) and detached from the bottom of the culture vessel by means of Accutase (PAA Laboratories, #L11-007) (incubation with Accutase for 15 min at 37° C.). The cell count then present is determined using a CASY™ cell counter (TCC model, Schärfe System) in order subsequently to apply 20,000 to 30,000 cells/well/100 μl of the described nutrient medium, depending on density optimisation for the individual cell line, to 96-well measuring plates of the Corning™ CellBIND™ type (flat clear-bottom black polystyrene microplates, #3340). Incubation is then carried out for one hour at room temperature, without gassing or adjusting the humidity, followed by incubation for 24 hours at 37° C., 5% CO2 and 95% humidity.
The voltage-sensitive fluorescent dye from the Membrane Potential Assay Kit (Red™ bulk format part R8123 for FLIPR, MDS Analytical Technologies™) is prepared by dissolving the contents of a vessel of Membrane Potential Assay Kit Red Component A in 200 ml of extracellular buffer (ES buffer, 120 mM NaCl, 1 mM KCl, 10 mM HEPES, 2 mM CaCl2, 2 mM MgCl2, 10 mM glucose; pH 7.4). After removal of the nutrient medium, the cells are washed with 200 μl of ES buffer, then covered with a layer of 100 μl of the dye solution prepared above and incubated for 45 min at room temperature with exclusion of light.
The fluorescence measurements are carried out with a BMG Labtech FLUOstar™, BMG Labtech NOVOstar™ or BMG Labtech POLARstar™ instrument (525 nm excitation, 560 nm emission, bottom-read mode). After incubation of the dye, 50 μl of the substances to be tested in the desired concentrations, or 50 μl of ES buffer for control purposes, are introduced into separate cavities of the measuring plate and incubated for 30 min at room temperature whilst being shielded from light. The fluorescence intensity of the dye is then measured for 5 min and the fluorescence value F1 of each well is thus determined at a given, constant time. 15 μl of a […] KCl solution […] are then added to each well. The change in fluorescence is subsequently measured until all relevant measured values have been obtained (mainly […]). At a given time after KCl application, a fluorescence value F2 is determined, in this case at the time of the fluorescence peak.
For calculation, the fluorescence intensity F2 is compared with the fluorescence intensity F1, and the agonistic activity of the target compound on the potassium channel is determined therefrom. F2 and F1 are calculated as follows: […]
In order to determine whether a substance has an agonistic activity,
[formula] is determined by adding to the reaction batch only the buffer solution instead of the substance to be tested, determining the value F1K of the fluorescence intensity, adding the potassium ions as described above and measuring a value F2K of the fluorescence intensity. Then F2K and F1K are calculated as follows: […]
A substance has an agonistic activity on the potassium channel if
Independently of the comparison of
[formula] it is also possible to conclude that a target compound has an agonistic activity if an increase in
[formula] is to be observed as the dosage of the target compound increases.
Calculations of EC50 values are carried out with the aid of Prism v4.0 software (GraphPad Softwares™).

Compound | Emax [%] | EC50 [nM] | IC50 (antagonistic activity) [nM]
O=C(CC1CCOCC1)Nc1cccnc1SCCS(=O)(=O)c1cccc(C(F)(F)F)c1 [Example 40, 2-Tetrahydropyran-4-yl-N-[2-[2-[[3-(trifluoromethyl)phenyl]sulfonyl]-ethylsulfanyl]-pyridin-3-yl]acetamide] | 52 |  | 
O=C(Nc1cccnc1SCCS(=O)(=O)c1cccc(C(F)(F)F)c1)c1ccccc1O [Example 53, 2-Hydroxy-N-[2-[2-[[3-(trifluoromethyl)phenyl]sulfonyl]-ethylsulfanyl]-pyridin-3-yl]benzamide] | 27.4 |  | 
O=C(Cc1ccccn1)Nc1cccnc1SCCS(=O)(=O)c1cccc(C(F)(F)F)c1 [Example 60, 2-Pyridin-2-yl-N-[2-[2-[[3-(trifluoromethyl)phenyl]sulfonyl]-ethylsulfanyl]-pyridin-3-yl]acetamide] | 101 | 1020 | 
O=C1CCCC(CC(=O)Nc2cccnc2SCCS(=O)(=O)c2cccc(C(F)(F)F)c2)C1 (stereo not shown) [Example 55, 2-(3-Oxocyclohexyl)-N-[2-[2-[[3-(trifluoromethyl)phenyl]sulfonyl]-ethylsulfanyl]-pyridin-3-yl]acetamide] | 84.8 | 3600 | 
O=C(Cc1cccnc1)Nc1cccnc1SCCS(=O)(=O)c1cccc(C(F)(F)F)c1 [Example 46, 2-Pyridin-3-yl-N-[2-[2-[[3-(trifluoromethyl)phenyl]sulfonyl]-ethylsulfanyl]-pyridin-3-yl]acetamide] | 50 |  | 
Cc1cc(C)cc(C(C)C(=O)Nc2cccnc2SCCS(=O)(=O)c2ccccc2)c1 (stereo not shown) [Example 8, N-[2-[2-(Benzenesulfonyl)-ethylsulfanyl]-pyridin-3-yl]-2-(3,5-dimethylphenyl)propionamide] | -68 |  | 322

More lines, now with the values ahead:

Emax [%] | EC50 [nM] | IC50 (antagonistic activity) [nM] | Compound
43 | 457 |  | O=C(Nc1cccnc1SCCS(=O)(=O)c1cccc(C(F)(F)F)c1)c1cccs1 [Example 18, N-[2-[2-[[3-(Trifluoromethyl)phenyl]sulfonyl]-ethylsulfanyl]-pyridin-3-yl]-thiophene-2-carboxylic acid amide]
79 | 22 |  | O=C(Nc1cccnc1SCCS(=O)(=O)c1cccc(C(F)(F)F)c1)C(F)(F)C1CCCCC1 [Example 68, 2-Cyclohexyl-2,2-difluoro-N-[2-[2-[[3-(trifluoromethyl)phenyl]sulfonyl]-ethylsulfanyl]-pyridin-3-yl]acetamide]
170 | 71 |  | O=C(CCCc1ccccc1)Nc1cccnc1SCCS(=O)(=O)c1cccc(C(F)(F)F)c1 [Example 25, 4-Phenyl-N-[2-[2-[[3-(trifluoromethyl)phenyl]sulfonyl]-ethylsulfanyl]-pyridin-3-yl]-butyramide]
114 | 18 |  | O=C(CC1CCCCCC1)Nc1cccnc1SCCS(=O)(=O)c1ccc(F)cc1 [Example 67, 2-Cycloheptyl-N-[2-[2-[(4-fluorophenyl)sulfonyl]-ethylsulfanyl]-pyridin-3-yl]acetamide]
106 | 141 |  | O=C(Cc1cccs1)Nc1cccnc1SCCCc1ccccc1 [Example 33, N-[2-(3-Phenyl-propylsulfanyl)-pyridin-3-yl]-2-thiophen-2-yl acetamide]
142 | 27 |  | O=C(CC1CCCCC1)Nc1cccnc1SCCS(=O)(=O)c1cccc(C(F)(F)F)c1 [Example 2, 2-Cyclohexyl-N-[2-[2-[[3-(trifluoromethyl)phenyl]sulfonyl]-ethylsulfanyl]-pyridin-3-yl]acetamide]
134 | 56.5 |  | O=C(CCC1CCc2ccccc2C1)Nc1cccnc1SCCS(=O)(=O)c1cccc(C(F)(F)F)c1 (stereo not shown) [Example 57, 3-(1,2,3,4-Tetrahydronaphthalen-2-yl)-N-[2-[2-[[3-(trifluoromethyl)phenyl]sulfonyl]-ethylsulfanyl]-pyridin-3-yl]propionamide]
129 | 469 |  | O=C(Nc1cccnc1SCCS(=O)(=O)c1ccccc1)c1ccc(F)c(F)c1 [Example 5, N-[2-[2-(Benzenesulfonyl)-ethylsulfanyl]-pyridin-3-yl]-3,4-difluorobenzamide]
